Measurements published in ChEMBL document CHEMBL1130742, “Inhibition of thermolysin with nitrone-bearing substrate analogs: a new type of thermolysin inhibitors” (Bioorg Med Chem Lett, 1998).
pKi: −log10 of the molar value.

biological target: T1, Thermolysin (Bacillus thermoproteolyticus, UniProt P00800); assay: Inhibitory activity against thermolysin using 2-furylacryloyl-Gly-Leu-NH2 as substrate at pH 7.2
T1 sequence (P00800 whole entry): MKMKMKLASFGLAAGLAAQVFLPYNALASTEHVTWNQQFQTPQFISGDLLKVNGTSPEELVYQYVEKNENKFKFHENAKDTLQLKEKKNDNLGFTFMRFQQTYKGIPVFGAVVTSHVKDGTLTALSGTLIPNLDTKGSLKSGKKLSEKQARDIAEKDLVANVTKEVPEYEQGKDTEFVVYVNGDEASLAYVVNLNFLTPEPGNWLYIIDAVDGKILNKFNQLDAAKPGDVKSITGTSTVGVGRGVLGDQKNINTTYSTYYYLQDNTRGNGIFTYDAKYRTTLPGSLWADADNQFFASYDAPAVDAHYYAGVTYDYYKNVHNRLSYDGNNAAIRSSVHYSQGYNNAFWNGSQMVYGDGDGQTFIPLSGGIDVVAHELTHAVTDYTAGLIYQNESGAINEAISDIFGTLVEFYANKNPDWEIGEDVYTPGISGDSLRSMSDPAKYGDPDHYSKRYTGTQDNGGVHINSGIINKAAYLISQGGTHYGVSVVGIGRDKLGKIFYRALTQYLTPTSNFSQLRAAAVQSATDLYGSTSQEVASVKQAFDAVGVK

SMILES | pKi
COC(=O)C(Cc1ccccc1)/[N+]([O-])=C/c1ccccc1 (stereo not drawn) | 2.72
NC(=O)C(/C=[N+](\[O-])Cc1ccccc1)Cc1ccccc1 (stereo not drawn) | 4.40
NC(=O)C(Cc1ccccc1)/[N+]([O-])=C/c1ccccc1 (stereo not drawn) | 3.11
COC(=O)C(Cc1ccccc1)C/[N+]([O-])=C/c1ccccc1 (stereo not drawn) | 3.61
O=CN(O)CC(Cc1ccccc1)C(=O)NCC(=O)O (stereo not drawn) | 4.47
O=C(O)CNC(=O)C(CC(=O)O)Cc1ccccc1 (stereo not drawn) | 3.47
O=C(O)CNC(=O)C(/C=[N+](\[O-])Cc1ccccc1)Cc1ccccc1 (stereo not drawn) | 4.27
COC(=O)C(/C=[N+](\[O-])Cc1ccccc1)Cc1ccccc1 (stereo not drawn) | 4.09
